Experiments:
Assay type in all cases: cell-based
[1] = system: Candida albicans biofilm; test: Catheter biofilm eradication (catheter segment test) on silicone tubing; conditions: 1 hour, silicone catheter segments
Experimental: (§1) To understand the antimicrobial effects of the local anesthetics used in the lock solution of the present invention in a clinical setting, a biofilm was grown on silicone catheter-like tubing and treated with various concentrations of local anesthetics. First, a sterile silicone catheter-like tube containing 10 mL TSB media was inoculated with a BD BBL™ Qualiswab™, and placed in an incubator at 37° C. overnight. The next day, a sterile flask containing 25 mL TSB (for bacterial species) or 25 mL SDB (for fungal species) was inoculated with the cultured cells. The morning of the experiment, a new flask containing 25 mL of media was inoculated with the new overnight suspension. These steps were taken to ensure that cells were in the log phase, which for S. epidermidis was ˜3-4 hours, and for C. albicans was around ˜18 hrs. […] Microbial concentrations were adjusted to 1×10^5 CFU/mL by dilution with appropriate media. Silicone catheter-like tubing was terminally sterilized by autoclaving the tube for 45 minutes at 121° C. The sterilized catheter-like tubing was inoculated with 1×10^5 CFU/mL for 2 hours under continuous flow. Continuous flow was created by using a peristaltic pump, in which bacterial suspension was flowed through the catheter segments into a waste reservoir. After the 2 hour time period, the same set up was used to pump TSB media through the tubing for an additional 24 hours to allow biofilm to form on the walls of the catheter lumen. After 24 hours, sterilized saline was pumped through the lumen for 30 minutes to rinse the catheters. Catheters were then cut into 1 inch segments using sterile techniques. Catheter segments were dropped into sterile tubes containing 4 mL of antimicrobials, and incubated in a 37° C. incubator shaker for 1 hour. Segments were removed from treatment tubes and placed into new tubes filled with 6 mL of sterile saline. Each segment was swabbed with a sterile swab and both the tube and the swab were sonicated (Ultrasonic cleaner VWR Model 250T) for 3 minutes. Tubes and swabs were then vortexed (Fisher Scientific Vortex Mixer #02-215-365) for 30 seconds each. One hundred microliters of suspension was plated onto TSB agar plates (SDB for fungal species). The remaining 5.9 mL of suspension was passed through 0.4 μm filters and filters were placed on TSB plates. This step was taken to ensure that all possible bacteria were being recovered. All TSB plates were then incubated at 37° C. in a static incubator for 24-48 hours, at which time colony forming units were counted.

[2] = system: Staphylococcus epidermidis biofilm; test: as above; conditions: 1 hour, silicone catheter segments
Experimental: as §1

[3] = system: Staphylococcus epidermidis; test: Planktonic cell tests; conditions: 12 mg/mL, 30 and 60 minutes
Experimental: In the planktonic cell tests, bupivacine was tested against non-adhering coagulase negative S. epidermidis, which is the bacterial species most prominent in the pathogenesis of CR-BSI. The planktonic cell experiments were performed by the following procedures. First, bacterial suspensions were prepared. Particularly, using BD BBL™ Qualiswab™, S. epidermidis was plated on a Tryptic Soy Broth (TSB) Petri Dish and grown overnight at 37° C. Using a sterile loop, a colony of S. epidermidis was picked up from the TSB Petri Dish and placed into a sterile flask containing 25 mL of sterile TSB media. The flask was then placed in a 37° C. shaking incubator and was shaken at 150 RPM overnight. The next day, 15 mL of the prepared bacterial suspension was placed into an autoclaved centrifuge tube and centrifuged at 10,000 RPM for 10 minutes using a Sorval Centrifuge. The bacteria from the bacterial suspension were rinsed in 0.9% saline by discarding the liquid media (after centrifugation step) and by resuspending the microbial pellet in 20 mL of sterile 0.9% saline. The bacteria were centrifuged and rinsed twice more, for a total of three saline rinses. […]
Bulk concentrations of the bupivacaine and/or vancomyacin (as noted in FIG. 1) were prepared in separate beakers and were filter sterilized. […] Samples were also assessed at time 0, in which there was no exposure to antimicrobials. […]

SMILES	eradication of established biofilm ([1]; 30 mg/mL)	Log reduction of established biofilm ([2]; 30 mg/mL) [Log]	Log reduction of established biofilm [1] [Log]	Log reduction of established biofilm ([2]; 16 mg/mL) [Log]	antimicrobial effect against planktonic Staphylococcus epidermidis [3]
CCCCNc1ccc(C(=O)OCCN(C)C)cc1.Cl [Tetracaine, Tetracaine HCl]	completely eradicated	1.7	–	–	–
CCCCN1CCCCC1C(=O)Nc1c(C)cccc1C.Cl (centres unmarked) [Bupivacaine, Bupivacaine HCl]	–	–	~1	~0.5	significant antimicrobial effect
